Data set [1] addresses T1, Orexin receptor type 2 (Homo sapiens) (UniProt O43614).
T1 sequence (whole entry): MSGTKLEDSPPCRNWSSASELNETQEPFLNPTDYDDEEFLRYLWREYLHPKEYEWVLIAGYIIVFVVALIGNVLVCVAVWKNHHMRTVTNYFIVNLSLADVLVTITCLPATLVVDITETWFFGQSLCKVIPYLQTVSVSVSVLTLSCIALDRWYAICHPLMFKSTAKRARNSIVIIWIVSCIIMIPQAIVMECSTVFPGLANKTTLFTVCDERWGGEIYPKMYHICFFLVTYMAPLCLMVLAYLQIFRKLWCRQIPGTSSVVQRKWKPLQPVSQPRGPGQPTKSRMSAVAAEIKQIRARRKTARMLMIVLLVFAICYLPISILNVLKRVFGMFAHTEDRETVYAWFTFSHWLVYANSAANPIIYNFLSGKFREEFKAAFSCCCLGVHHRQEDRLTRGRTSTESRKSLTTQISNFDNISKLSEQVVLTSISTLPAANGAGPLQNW
Briefly: Displacement of [125I]-orexin-A from human OX2 receptor expressed in CHOK1 cells at 10 uM incubated for 10 mins and measured after 90 mins by liquid scintillation counting method relative to control. The format is cell-based.

The target of data set [2] is T2, Orexin/Hypocretin receptor type 1 (Homo sapiens) (UniProt O43613).
T2 sequence (whole entry): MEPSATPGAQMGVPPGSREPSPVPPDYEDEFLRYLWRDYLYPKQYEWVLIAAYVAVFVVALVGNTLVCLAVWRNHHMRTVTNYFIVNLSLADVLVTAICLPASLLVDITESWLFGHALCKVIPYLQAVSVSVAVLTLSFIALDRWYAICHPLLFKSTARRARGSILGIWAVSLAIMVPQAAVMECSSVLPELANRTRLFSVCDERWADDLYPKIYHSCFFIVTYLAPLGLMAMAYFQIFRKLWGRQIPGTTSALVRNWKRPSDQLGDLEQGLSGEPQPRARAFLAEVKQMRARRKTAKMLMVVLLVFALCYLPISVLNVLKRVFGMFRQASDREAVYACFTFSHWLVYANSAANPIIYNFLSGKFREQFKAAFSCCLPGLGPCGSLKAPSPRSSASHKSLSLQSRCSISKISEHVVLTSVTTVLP
The experiment in a line: Displacement of [125I]-orexin-A from human OX1 receptor expressed in CHOK1 cells at 10 uM incubated for 10 mins and measured after 90 mins by liquid scintillation counting method relative to control. Type of data set: cell-based.

Data set [3] addresses T2, Orexin/Hypocretin receptor type 1 (Homo sapiens). Briefly: Agonist activity at human OX1 receptor expressed in CHOK1 cells assessed as increase in calcium accumulation at 10 uM incubated for 30 mins measured for 150 secs by calcium-4 dye based FLIPR assay relative to orexin-A. The format is functional, cell-based.
Data set [4] concerns the target T1, Orexin receptor type 2 (Homo sapiens). The experiment in a line: Agonist activity at human OX2 receptor expressed in CHOK1 cells assessed as increase in calcium accumulation at 10 uM incubated for 30 mins measured for 150 secs by calcium-4 dye based FLIPR assay relative to orexin-A. The format is functional, cell-based.
The target of data set [5] is T2, Orexin/Hypocretin receptor type 1 (Homo sapiens). The experiment in a line: Allosteric agonist activity at human OX1 receptor expressed in CHOK1 cells assessed as potentiation of orexin-A induced calcium accumulation at 10 uM preincubated for 30 mins followed by orexin-A addition and measured for 150 secs by calcium-4 dye based FLIPR assay relative to control. The format is functional, cell-based.

Data set [6] has as its system CHO-K1. The experiment in a line: Effect on ATP-induced intracellular calcium accumulation in CHOK1 cells expressing human OXR at 10 uM incubated for 30 mins and measured for 150 secs by calcium-4 dye based FLIPR assay. Type of data set: functional, cell-based. To be noted: Cricetulus griseus.
The target in data set [7] is T1, Orexin receptor type 2 (Homo sapiens). Briefly: Allosteric agonist activity at human OX2 receptor expressed in CHOK1 cells assessed as potentiation of orexin-A induced calcium accumulation at 10 uM preincubated for 30 mins followed by orexin-A addition and measured for 150 secs by calcium-4 dye based FLIPR assay relative to control. The format is functional, cell-based.

Data set [8] in a line: Solubility of the compound in water. The format is physicochemical. To be noted: buffer.
The target of data set [9] is T2, Orexin/Hypocretin receptor type 1 (Homo sapiens). Briefly: Allosteric agonist activity at human OX1 receptor expressed in CHOK1 cells assessed as potentiation of orexin-A induced calcium accumulation preincubated for 30 mins followed by orexin-A addition and measured for 150 secs by calcium-4 dye based FLIPR assay. The format is functional, cell-based.
Data set [10] has as its target T1, Orexin receptor type 2 (Homo sapiens). Briefly: Allosteric agonist activity at human OX2 receptor expressed in CHOK1 cells assessed as potentiation of orexin-A induced calcium accumulation preincubated for 30 mins followed by orexin-A addition and measured for 150 secs by calcium-4 dye based FLIPR assay. The format is functional, cell-based.

Active and inactive are the calls of the source. The calls are words filed in the database; no cut-off is given here.

On to `O=C(Oc1ccc2ccc(Cl)ccc1-2)c1cccnc1`, for which the values for the inhibition in data set [1] and in [2] were 32.3% and -2.4%, respectively. The Emax is 0.6% in [3] and -2.65% in data set [4].

As for `COC(=O)c1cccc2c(C(=O)c3ccccc3)cc(C(=O)c3ccc(C(Cl)(Cl)Cl)cc3)c-2c1`, the values for the inhibition in [1] and in data set [2] were 27% and 10.4%, respectively. The values for the Emax in data set [3] and in data set [4] were 0.69% and -0.14%, respectively.

Consider `O=C(O)c1ccc2ccc(C(=O)c3ccccc3)c-2cc1`, for which the results for the inhibition in [1] and in data set [2] were 32.9% and 11%, respectively. Besides, the Emax in data set [3] came to 2.16%; in data set [4], 2.29%. Further, the fold change (FC) in [5] amounted to 1.52; in data set [7], 0.98. Also, the result in data set [6] was inactive.

`CC(C)(C)OC(=O)NCC(=O)Oc1ccc2ccc(Cl)ccc1-2`: the inhibition in data set [1] is 36%; in data set [2], -4.5%. In addition, the Emax is 1.62% in data set [3] and -1.01% in data set [4].

Turning to `COC(=O)c1ccc2ccc(C(=O)c3ccccc3)c-2cc1`, the results for the inhibition in [1] and in data set [2] were 28.9% and 7.2%, respectively. The Emax was found to be 4.15% in [3] and 4.92% in data set [4]. Also, the fold change (FC) in data set [5] was determined as 1.64; in data set [7], 0.79. In addition, the outcome in [6] was inactive.

In the case of `COC(=O)c1ccc2c(C=O)cc(-c3ccccc3)c-2cc1`, the inhibition in [1] is 1.8%; in data set [2] it was 8.5%. Further, the Emax in [3] is 0.8%; in data set [4], -0.27%.

In the case of `O=Cc1cc(-c2ccccc2)c2ccc(C(=O)O)ccc1-2`, the inhibition in data set [1] worked out at 21.5%; in data set [2] it was 16.2%. Besides, the Emax is 0.8% in [3] and -0.21% in [4].

On to `O=C(O)c1cccc2c(C(=O)c3ccccc3)cc(C(=O)c3ccc(C(Cl)(Cl)Cl)cc3)c-2c1`, for which the inhibition in data set [1] is 25.6%; in data set [2] it was 19.9%. Moreover, the Emax was -1.38% in data set [3] and -3.18% in data set [4].

`CCOc1ccc(-c2cc(C(=O)c3ccccc3)c3ccc(C(=O)OC)ccc2-3)cc1`: the inhibition in data set [1] worked out at 19.1%; in data set [2] it was 8.4%. For the same molecule, the Emax was 1.49% in data set [3] and -0.24% in data set [4].

With `O=C(Oc1ccc2ccc(Cl)ccc1-2)c1cccs1`, the inhibition in data set [1] was 33.2%; in [2] it was 9.8%. For the same molecule, the Emax in data set [3] was 0.91%; in [4], -2.7%.

Take `COC(=O)c1ccc2c(C(=O)c3ccccc3)cc(C(=O)c3ccccc3)c-2cc1`: the solubility result in data set [8] is “Insoluble”. The Emax was -0.56% in data set [3] and -1.51% in data set [4]. Further, the fold change (FC) is 1.97 in [5] and 0.88 in data set [7]. Further, the Activity entry in data set [9] and in [10] was “Dose-dependent effect” each time. Further, the result in data set [6] was inactive.

Consider `O=Cc1ccc2ccc(C(=O)O)ccc1-2`, for which the inhibition in [1] was found to be 44.1%; in data set [2], 37.8%. The Emax is 1.75% in [3] and 3.47% in data set [4].

`COC(=O)Cc1ccc2c(C(=O)c3ccccc3)cc(C(=O)c3ccccc3)c-2cc1`: the Emax came out at 0.28% in data set [3] and 0.05% in [4]. For the same molecule, the fold change (FC) in data set [5] was 1.68; in data set [7], 1.06. Further, the outcome in [6] was inactive.

As to `COC(=O)c1cccc2c(C(=O)c3ccccc3)cc(C(=O)c3ccc(C(F)(F)F)cc3)c-2c1`, the values for the inhibition in data set [1] and in data set [2] were 27% and 10.4%, respectively. Besides, the values for the Emax in data set [3] and in data set [4] were 0.69% and -0.14%, respectively.

Consider `O=C(Oc1ccc2ccc(Cl)ccc1-2)c1ccccc1`, for which the inhibition in data set [1] turned out to be 34.3%; in data set [2], 0.1%. In addition, the Emax in data set [3] was 0.08%; in data set [4] it was -3.3%.

`O=C(O)c1ccc2c(C(=O)c3ccccc3)cc(C(=O)c3ccccc3)c-2cc1`: the inhibition in [1] came out at 27%. Moreover, the values for the Emax in [3] and in data set [4] were -1.39% and -2.09%, respectively. Moreover, the fold change (FC) in [5] was 1.42; in data set [7] it was 0.75. In addition, the result in data set [6] was inactive.

As to `COC(=O)CCC(=O)Oc1ccc2ccc(Cl)ccc1-2`, the inhibition in [1] amounted to 24.3%; in data set [2] it was 8%. In addition, the Emax in data set [3] was 0.73%; in [4], -2.13%.

Regarding `Cc1ccc2ccc(C(=O)c3ccc(C(F)(F)F)cc3)c-2cc1`, the figures for the inhibition in data set [1] and in [2] were 31% and 38.3%, respectively. The Emax in data set [3] is 0.61%; in data set [4] it was -0.44%.

As to `COC(=O)c1ccc2c(I)cc(C(=O)c3ccccc3)c-2cc1`, the solubility result in data set [8] is “Insoluble”. Moreover, the inhibition in [1] is -5.4%. For the same molecule, the Emax in data set [3] was 1.17%; in data set [4], -0.25%. Besides, the fold change (FC) in [5] stood at 1.99; in data set [7] it was 1.02. In addition, the Activity result in [9] and in [10] was “Dose-dependent effect” each time. The outcome in [6] was inactive.

Turning to `O=C(O)Cc1ccc2ccc(C(=O)c3ccc(C(F)(F)F)cc3)c-2cc1`, the inhibition in [1] was found to be 11.2%; in [2] it was 8.6%. Besides, the figures for the Emax in [3] and in [4] were 0.22% and -1.06%, respectively. The results for the fold change (FC) in data set [5] and in data set [7] were 1.5 and 0.98, respectively. For the same molecule, in data set [6], the outcome was inactive.

`O=C(O)c1cccc2c(C(=O)c3ccccc3)cc(C(=O)c3ccc(C(F)(F)F)cc3)c-2c1`: the inhibition in [1] came out at 26.4%; in data set [2], 18.3%. Also, the results for the Emax in data set [3] and in data set [4] were -1.38% and -3.18%, respectively.

As for `COC(=O)c1ccc2ccc(C=O)c-2cc1`, the results for the inhibition in data set [1] and in data set [2] were 37.2% and 25%, respectively. Besides, the Emax turned out to be 3.06% in data set [3] and 2.26% in data set [4].

As to `O=C(O)c1ccc2ccc(C(=O)c3ccc(C(F)(F)F)cc3)c-2cc1`, in data set [1], the inhibition came to 1%. The Emax was found to be 1.09% in [3] and 2.96% in data set [4]. Besides, the values for the fold change (FC) in data set [5] and in data set [7] were 1.53 and 0.9, respectively. For the same molecule, in data set [6], the result was inactive.

Take `NC(=O)c1ccc2ccc(C(=O)c3ccccc3)c-2cc1`: the inhibition in [1] was determined as 18%; in data set [2] it was 13.6%. Also, the Emax in data set [3] worked out at 0.42%; in data set [4], 1.32%.

As for `COC(=O)c1cc(C=O)c2ccc(/C=C/c3cnc[nH]3)ccc1-2`, the figures for the inhibition in [1] and in data set [2] were 39.9% and 23%, respectively. The figures for the Emax in [3] and in data set [4] were 2.35% and 0.4%, respectively.

As to `NC(=O)c1ccc2c(C=O)cc(-c3ccccc3)c-2cc1`, the figures for the inhibition in [1] and in data set [2] were 16.7% and 6.1%, respectively. Also, the Emax is 0.64% in data set [3] and 1.71% in [4].

On to `O=C(OCc1ccccc1)Oc1ccc2ccc(Cl)ccc1-2`, for which the inhibition in data set [1] amounted to 35.6%; in data set [2], 18.2%. Also, the Emax in data set [3] was 0.46%; in [4], -2.71%.

(Values after ChEMBL document CHEMBL4270590, “Azulene-based compounds for targeting orexin receptors” (Eur J Med Chem, 2018).)
